Results on nine compounds are retold here after US9403758B2, “Antibacterial agents” (Achaogen, Inc., priority 2012, dated 2016).

Molecules are shown by their SMILES. In brackets after ≈: the same amount, converted by molar mass.

Format in all cases: cell-based
Test [1] relates to Pseudomonas aeruginosa ATCC27853. As to the kind of experiment: MIC broth microdilution, Pseudomonas aeruginosa ATCC27853 (APAE). The note with it: 35° C., 18-24 hr, read-out: Minimum Inhibitory Concentrations (MICs) APAE. The procedure: (§1) Bacterial isolates were cultivated from −70° C. frozen stocks by overnight passages at 35° C. in ambient air on Mueller-Hinton agar (Beckton Dickinson, Franklin Lakes, N.J.). Clinical isolates tested were obtained from various geographically diverse hospitals in the US and abroad (Focus Diagnostics, Herndon, Va. and JMI, North Liberty, Iowa). Quality control strains were from the American Type Culture Collection (ATCC; Rockville, Md.).
(§2) Minimum Inhibitory Concentrations (MICs) were determined by the broth microdilution method in accordance with the Clinical and Laboratory Standards Institute (CLSI) guidelines. In brief, organism suspensions were adjusted to a 0.5 McFarland standard to yield a final inoculum between 3×10^5 and 7×10^5 colony-forming units (CFU)/mL. Drug dilutions and inocula were made in sterile, cation adjusted Mueller-Hinton Broth (Beckton Dickinson). An inoculum volume of 100 μL was added to wells containing 100 μL of broth with 2-fold serial dilutions of drug. All inoculated microdilution trays were incubated in ambient air at 35° C. for 18-24 hr. Following incubation, the lowest concentration of the drug that prevented visible growth (OD600 nm<0.05) was recorded as the MIC. Performance of the assay was monitored by the use of laboratory quality-control strains and levofloxacin, a compound with a defined MIC spectrum, in accordance with CLSI guidelines. Typically, compounds of the present invention have MIC values of 0.03-32 μg/mL.

For test [2], the system named is Klebsiella pneumonia ATCC43816. As to the kind of experiment: MIC broth microdilution, Klebsiella pneumonia ATCC43816 (AKPN). The note with it: Klebsiella pneumoniae, 35° C., 18-24 hr, read-out: Minimum Inhibitory Concentrations (MICs) AKPN. The procedure: as §1, §2
For orientation: Broth dilution looks for growth in wells or tubes with falling amounts of substance.

Test [3] relates to Escherichia coli ATCC25922. In words: MIC broth microdilution, Escherichia coli ATCC25922 (AECO). Particulars: 35° C., 18-24 hr, read-out: Minimum Inhibitory Concentrations (MICs) AECO. The procedure: as §1, §2

Regarding `O=C(NO)c1cc(-c2ccc(C#CC#C[C@@H]3C[C@H]3CO)cc2)nc2ccncc12` (relative stereo) [Compound 1, N-hydroxy-2-(4-(((trans)-2-(hydroxymethyl)cyclopropyl)buta-1,3-diynyl)phenyl)-1,6-naphthyridine-4-carboxamide], the MIC was 8 to 16 µg/mL (≈ 20.9 to 41.7 µM) in test [1], not above 1 µg/mL in test [2] and not above 1 µg/mL in test [3].

For `O=C(NO)c1cc(-c2ccc(C#CC#C[C@@H]3C[C@H]3CO)cc2)ccn1` (relative stereo) [Compound 2, N-hydroxy-4-(4-(((trans)-2-(hydroxymethyl)cyclopropyl)buta-1,3-diynyl)phenyl)picolinamide], the MIC in test [1] is 8 to 16 µg/mL (≈ 24.1 to 48.1 µM); in test [2], 8 to 16 µg/mL (≈ 24.1 to 48.1 µM); in test [3] it was not above 1 µg/mL.

In the case of `CC(CCc1ccc(C#CC#C[C@H]2C[C@@H]2CO)cc1)(C(=O)NO)S(C)(=O)=O` (relative stereo) [Compound 9, N-hydroxy-4-(4-(((trans)-2-(hydroxymethyl)cyclopropyl)buta-1,3-diynyl)phenyl)-2-methyl-2-(methylsulfonyl)butanamide], the values for the MIC in test [1], in test [2] and in test [3] were not above 1 µg/mL, 1 to 8 µg/mL (≈ 2.57 to 20.5 µM) and not above 1 µg/mL, respectively.

As to `CSC(C)(C)[C@H](NC(=O)c1ccc(C#CC#C[C@H]2C[C@@H]2CO)cc1)C(=O)NO` (stereo in doubt) [Compound 3, N—((R)-1-(hydroxyamino)-3-methyl-3-(methylthio)-1-oxobutan-2-yl)-4-(((trans)-2-(hydroxymethyl)cyclopropyl)buta-1,3-diynyl)benzamide], the MIC in test [1], in test [2] and in test [3] was not above 1 µg/mL throughout.

As to `C[S+]([O-])C(C)(C)[C@H](NC(=O)c1ccc(C#CC#C[C@H]2C[C@@H]2CO)cc1)C(=O)NO` (stereo in doubt) [Compound 4, N-((2R)-1-(hydroxyamino)-3-methyl-3-(methylsulfinyl)-1-oxobutan-2-yl)-4-(((trans)-2-(hydroxymethyl)cyclopropyl)buta-1,3-diynyl)benzamide], the values for the MIC in test [1], in test [2] and in test [3] were not above 1 µg/mL, 8 to 16 µg/mL (≈ 19.2 to 38.4 µM) and not above 1 µg/mL, respectively.

With `CC(C)([C@H](NC(=O)c1ccc(C#CC#C[C@H]2C[C@@H]2CO)cc1)C(=O)NO)S(C)(=O)=O` (stereo in doubt) [Compound 5, N—((R)-1-(hydroxyamino)-3-methyl-3-(methylsulfonyl)-1-oxobutan-2-yl)-4-(((trans)-2-(hydroxymethyl)cyclopropyl)buta-1,3-diynyl)benzamide], the MIC in test [1], in test [2] and in test [3] was not above 1 µg/mL throughout.

Turning to `CC(C)(N)[C@H](NC(=O)c1ccc2cc(C#CC3C[C@@H]3CO)ccc2c1)C(=O)NO` (stereo partly drawn) [Compound 6, N—((S)-3-amino-1-(hydroxyamino)-3-methyl-1-oxobutan-2-yl)-6-(((trans)-2-(hydroxymethyl)cyclopropyl)ethynyl)-2-naphthamide], the values for the MIC in test [1], in test [2] and in test [3] were not above 1 µg/mL, 8 to 16 µg/mL (≈ 20.2 to 40.5 µM) and 1 to 8 µg/mL (≈ 2.53 to 20.2 µM), respectively.

On to `CC(C)(N)[C@H](NC(=O)c1cc2ccc(C#CC3C[C@H]3CO)cc2s1)C(=O)NO` (stereo partly drawn) [Compound 7, N—((S)-3-amino-1-(hydroxyamino)-3-methyl-1-oxobutan-2-yl)-6-(((trans)-2-(hydroxymethyl)cyclopropyl)ethynyl)benzo[b]thiophene-2-carboxamide], for which the MIC in test [1] was in the range of 1 to 8 µg/mL (≈ 2.49 to 19.9 µM); in test [2], 8 to 16 µg/mL (≈ 19.9 to 39.9 µM); in test [3], 1 to 8 µg/mL (≈ 2.49 to 19.9 µM).

As for `CNC(=O)C(NC(=O)c1ccc(C#CC#C[C@@H]2C[C@H]2CO)cc1)C(=O)NO` (stereo partly drawn) [Compound 8], the MIC in test [1], in test [2] and in test [3] was not above 1 µg/mL throughout.
